Source: US10626126B2, “Compounds” (Pulmocide Limited, priority 2016, dated 2020)
Entries after “also recorded” stand apart in the source; their conditions may differ.

Key:
[1] = Cell viability: resazurin assay; format: cell-based; details: human, HEp2 cells
RSV A2 [2] = assay: RSV F protein expression in BEAS2B bronchial epithelial cells; format: cell-based; details: human respiratory syncytial virus, BEAS-2B, n=2
Description: An early event which follows the infection of epithelial cells by RSV is the expression of RSV F-protein on the cells' surface. BEAS2B cells were grown in 96 well plates. […] Supernatant was aspirated and the cells were fixed with 4% formaldehyde (100 μL in PBS solution) for 20 min, washed 3 times with washing buffer (200 μL; PBS containing 0.05% Tween-20) and incubated with blocking solution (100 μL; 5% BSA in washing buffer) for 1 hr. […] No. ab43812, Abcam plc, Cambridge, UK) F-fusion protein antibody (50 μL; prepared at a 1:2000 dilution in 5% BSA/washing buffer). After washing, cells were incubated with an HRP-conjugated anti-mouse IgG antibody (50 μL prepared at a 1:2000 dilution in 5% BSA in PBS; lot 00095437, Cat. No. P0447, Dako UK Ltd, Cambridgeshire, UK) for 1 hr. […] The resultant signal was determined colourimetrically (OD: 450 nm with a reference wavelength of 655 nm) in a microplate reader (Multiskan FC®, ThermoFisher Scientific). […] After washing with PBS (200 μL) 2 times, 1% SDS (100 μL) was added to each well, and plates were shaken lightly for 1 hr prior to reading the absorbance at 595 nm. The measured OD450-655 readings were corrected for cell number by dividing the OD450-655 by the OD595 readings. The percentage inhibition for each well was calculated and the IC50 value derived from the concentration-response curve generated for each test compound.

RSV B Washington strain = assay: RSV B induced CPE in HEp2 cells; format: cell-based; details: human respiratory syncytial virus; for IC50: HEp-2, 144 h, 6 days
How it was run: (§1)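 HEp2 cells in 5% FBS-DMEM were seeded one day before infection, then virus and compound were added together (0.5% DMSO final). A fluorogenic viability dye was added for a further 6 h at 37 °C, and fluorescence was read at 545/590 nm. Percent inhibition gave IC50, IC75 and IC90 from concentration-response curves.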

RSV A2 [3] = assay: Virus titre in air-liquid interface (ALI) cultured bronchial epithelial cells; details: for Virus titre in apical wash, geometric mean: late intervention (days 3-7), 0.1 mg/mL; for inhibition of virus titre in ALI culture (in words): late stage intervention
Description: ALI cultured human bronchial epithelial cells were sourced from Epithelix Sarl (Geneva, Switzerland) and maintained by changing the basal media every 3-4 days, whilst the apical surface was washed once weekly with PBS. On day 0, the apical surface of each well was washed once with sterile PBS (300 μL) and the inserts transferred to new 24-well plates containing fresh MucilAir culture medium (780 μL; EP04MM). RSV A2 (50 μL; diluted in MucilAir culture medium to give a final MOI of 0.01) was added to cells for one hr (37° C./5% CO2). For the purposes of standardizing MOI calculations, each MucilAir insert was estimated to contain 2×10^5 apical facing cells per well. Virus inoculum was removed with a pipette and inserts were washed twice with sterile PBS (300 μL).
Sampling was conducted by adding sterile PBS (300 μL) to the apical surface of each well for 5 min. The apical sample was then removed and transferred to tubes containing 50% sucrose dissolved in PBS (100 μL) before being stored at −80° C. This harvesting procedure was repeated daily beginning on day 0 and concluding on day 10.
The test compound (50 μL in 0.5% DMSO/PBS) was added to the apical surface and incubated (37° C./5% CO2) for 1 hr before being removed. Vehicle treatments (0.5% DMSO/PBS) were performed on the corresponding apical surfaces to ensure each well received the same number of manipulations. On day 5, the basal media was removed from each well and replenished with fresh MucilAir culture media as a necessary maintenance step for ALI culture cells.
Virus titre was quantified by plaque assay. HEp2 cells were grown in 24-well plates (Corning) for 48 hr prior to infection in DMEM containing 10% FBS until they attained 100% confluency.
Collected samples were thawed at RT and ten-fold serial dilutions were prepared in serum-free DMEM. The growth medium from HEp2 cells was aspirated and replaced with 300 μL of serially diluted virus collections and left to infect at 37° C./5% CO2 for 4 hr. The infectious media was aspirated and replaced with 1 mL Plaque Assay Overlay (0.3% Avicel RC-591 (FMC Biopolymer UK, Girvan, Scotland)) in MEM, supplemented to a final concentration of 2% FCS), and left for 7 days at 37° C./5% CO2. Cells were fixed with ice-cold methanol for 10 min, then removed and cells subjected to two washes with sterile PBS. Cells were then stained with crystal violet solution (200 μL 0.1%, in distilled water) for 1 hr. Crystal violet solution was removed and cells rinsed with water before plaques were counted and virus titre enumerated.

hRSV/A/Long = assay: RSV infection in cotton rats: viral titre in lung (plaque assay); details: for Virus titre in lung, Geometric Mean / Virus titre in lung, Median: day 4 post infection
Description: (§2) Male Sigmodon hispidus cotton rats between 6 and 8 weeks of age were infected with hRSV/A/Long (ATCC, Manassas, Va.; 10^5 pfu) in a volume of 0.1 mL of sucrose stabilizing media. Test compounds were dissolved in 100% DMSO (at 3.3, 10, 33 and 100 mg/mL), then diluted (1:10 in isotonic saline to achieve 10% DMSO in all treatments) and sonicated to produce suspensions which were administered intranasally (50 μL) by pipette 4 hr before infection (on day 0), and then on days 1, 2 and 3 post infection. Four days after RSV challenge, the animals were euthanised and the lungs removed.
The supernatants of lung homogenates were diluted 1:10 and 1:100 in Eagle (E)-MEM. Confluent HEp2 monolayers in 24-well plates were infected in duplicate (50 μL of sample per well) starting with undiluted (neat) samples followed by diluted homogenates. After incubation for 1 hr (37° C./5% CO2) wells were overlaid with 0.75% methylcellulose medium and plates replaced in the 37° C. incubator. After incubation (for 4 days), the overlay was removed, the cells fixed with 0.1% crystal violet stain (for 1 hr) and then rinsed and air-dried. Plaques were counted and viral titers were expressed as plaque forming units per gram (pfu.g^−1) of tissue.

RANTES gene = assay: RSV infection in cotton rats: RANTES gene expression in lung (qRT-PCR); details: intranasal
Description: as §2
Total RNA was also extracted from homogenized lung tissue (RNeasy purification kit; Qiagen) and a sample (1 μg) used to prepare cDNA using QuantiTect Reverse Transcription Kit (Qiagen). For real-time PCR reactions (RSV NS-1 and RANTES genes) the QuantiFast SYBR® Green PCR Kit (Qiagen) was used in a final volume of 25 μL, with final primer concentrations of 0.5 μM. Amplifications were performed on a Bio-Rad iCycler for 1 cycle of 950C for 3 min, followed by 40 cycles of 950C for 10 sec, 600C for 10 sec, and 720C for 15 sec. Baseline cycles and cycle threshold (Ct) were calculated by the iQ5 software in the PCR Base Line Subtracted Curve Fit mode.
The standard curves were developed using the serially diluted cDNA sample most enriched in the transcript of interest (e.g., lungs from day 4 post-primary RSV infection). The Ct values were plotted against log10 cDNA dilution factor and the curves were used to convert the Ct values obtained for different samples to relative expression units, which were then normalized against the level of R-actin mRNA (“housekeeping gene”) expressed in the corresponding sample. The mRNA levels were expressed as the geometric mean±SEM for all animals in a group.

RSV NS-1 gene = assay: RSV infection in cotton rats: RSV NS-1 gene expression in lung (qRT-PCR); format: in vivo, Sigmodon hispidus cotton rats; details: intranasal
RSV A2 strain = assay: RSV A2 induced CPE in HEp2 cells; format: cell-based; details: human respiratory syncytial virus; for IC50: HEp-2, 120 h, 5 days; for inhibition at 0.01 µg/mL: HEp-2, at 0.01 μg/mL
How it was run: as §1

Cc1cnc(N2CC3(CCOCC3)C2)c(C(=O)Nc2ccc(C(=O)N3CCc4cc(C(=O)Nc5c(F)cccc5F)sc4-c4sccc43)cc2)c1 [Example 1, N-(2,6-Difluorophenyl)-4-(4-(5-methyl-2-(7-oxa-2-azaspiro[3.5]nonan-2-yl)nicotinamido)benzoyl)-5,6-dihydro-4H-dithieno[3,2-b:2′,3′-d]azepine-8-carboxamide]
CC50 at 5 days [1]: > 13800 nM | IC50 (RSV A2 [2]): 0.021 nM | IC90 (RSV A2 [2]): 0.078 nM | IC50 (RSV B Washington strain): 9 nM | inhibition at 0.1 µg/mL (RSV B Washington strain; HEp-2, at 0.1 μg/mL): 100% | Virus titre in apical wash, geometric mean (RSV A2 [3]; day 0): 0 log PFU/mL | Virus titre in apical wash, geometric mean (RSV A2 [3]; day 1): 2.14 log PFU/mL | Virus titre in apical wash, geometric mean (RSV A2 [3]; day 2): 3.05 log PFU/mL | Virus titre in apical wash, geometric mean (RSV A2 [3]; day 3): 5.18 log PFU/mL | Virus titre in apical wash, geometric mean (RSV A2 [3]; day 4): 3.55 log PFU/mL | Virus titre in apical wash, geometric mean (RSV A2 [3]; day 5): 3.68 log PFU/mL | Virus titre in apical wash, geometric mean (RSV A2 [3]; day 6): 2.24 log PFU/mL | Virus titre in apical wash, geometric mean (RSV A2 [3]; day 7): 1.71 log PFU/mL | inhibition of virus titre in ALI culture (in words) (RSV A2 [3]): completely inhibited virus titre | Virus titre in lung, Geometric Mean (hRSV/A/Long; intranasal, 0.1 mg/mL): 5.4 log, PFU/lung | Virus titre in lung, Median (hRSV/A/Long; intranasal, 0.1 mg/mL): 5.4 log, PFU/lung | Virus titre in lung, Geometric Mean (hRSV/A/Long; intranasal, 0.33 mg/mL): 5.0 log, PFU/lung | Virus titre in lung, Median (hRSV/A/Long; intranasal, 0.33 mg/mL): 5.0 log, PFU/lung | Virus titre in lung, Geometric Mean (hRSV/A/Long; intranasal, 1.0 mg/mL): 4.3 log, PFU/lung | Virus titre in lung, Median (hRSV/A/Long; intranasal, 1.0 mg/mL): 4.3 log, PFU/lung | Virus titre in lung, Geometric Mean (hRSV/A/Long; intranasal, 3.3 mg/mL): <2.3^2 log, PFU/lung | Virus titre in lung, Median (hRSV/A/Long; intranasal, 3.3 mg/mL): <2.3 log, PFU/lung | inhibition of viral titre in lung homogenates (in words) (hRSV/A/Long; intranasal, RSV/A/Long infected cotton rats): potent dose-dependent inhibition of viral titre; also recorded: completely inhibited virus titre | inhibition of RANTES transcripts in lung (in words) (RANTES gene): dose-dependent inhibition | RANTES gene transcript % Inhibition (RANTES gene; 0.33 mg/mL): −8% | RANTES gene transcript (/β-actin), Median (RANTES gene; 0.33 mg/mL): 3.9 | RANTES gene transcript % Inhibition (RANTES gene; 1.0 mg/mL): 36% | RANTES gene transcript (/β-actin), Median (RANTES gene; 1.0 mg/mL): 2.3 | RANTES gene transcript % Inhibition (RANTES gene; 3.3 mg/mL): 36% | RANTES gene transcript (/β-actin), Median (RANTES gene; 3.3 mg/mL): 2.3 | RANTES gene transcript % Inhibition (RANTES gene; 10 mg/mL): 61% | RANTES gene transcript (/β-actin), Median (RANTES gene; 10 mg/mL): 1.4 | inhibition of RSV NS-1 gene transcripts (in words) (RSV NS-1 gene): dose-dependent inhibition | RSV NS1 gene transcript % inhibition (RSV NS-1 gene; 0.33 mg/mL): −42% | RSV NS1 gene transcript (/β-actin), Median (RSV NS-1 gene; 0.33 mg/mL): 4.4 | RSV NS1 gene transcript % inhibition (RSV NS-1 gene; 1.0 mg/mL): 39% | RSV NS1 gene transcript (/β-actin), Median (RSV NS-1 gene; 1.0 mg/mL): 1.9 | RSV NS1 gene transcript % inhibition (RSV NS-1 gene; 3.3 mg/mL): 48% | RSV NS1 gene transcript (/β-actin), Median (RSV NS-1 gene; 3.3 mg/mL): 1.6 | RSV NS1 gene transcript % inhibition (RSV NS-1 gene; 10 mg/mL): 68% | RSV NS1 gene transcript (/β-actin), Median (RSV NS-1 gene; 10 mg/mL): 1.0 | IC50 (RSV A2 strain): 0.11 nM | inhibition at 0.01 µg/mL (RSV A2 strain): 100%

Cc1cnc(N2CC3(CCOCC3)C2)c(C(=O)Nc2ccc(C(=O)N3CCc4cc(C(=O)Nc5c(F)cccc5Cl)sc4-c4sccc43)cc2)c1 [Example 12, N-(2-chloro-6-fluorophenyl)-4-(4-(5-methyl-2-(7-oxa-2-azaspiro[3.5]nonan-2-yl)nicotinamido)benzoyl)-5,6-dihydro-4H-dithieno[3,2-b:2′,3′-d]azepine-8-carboxamide]
CC50 at 5 days [1]: > 13500 nM | IC50 (RSV B Washington strain): 3.1 nM | inhibition at 1 µg/mL (RSV B Washington strain; HEp-2, at 1 μg/mL): 97% | Virus titre in apical wash, geometric mean (RSV A2 [3]; day 0): 0 log PFU/mL | Virus titre in apical wash, geometric mean (RSV A2 [3]; day 1): 2.57 log PFU/mL | Virus titre in apical wash, geometric mean (RSV A2 [3]; day 2): 4.86 log PFU/mL | Virus titre in apical wash, geometric mean (RSV A2 [3]; day 3): 5.27 log PFU/mL | Virus titre in apical wash, geometric mean (RSV A2 [3]; day 4): 4.71 log PFU/mL | Virus titre in apical wash, geometric mean (RSV A2 [3]; day 5): 3.45 log PFU/mL | Virus titre in apical wash, geometric mean (RSV A2 [3]; day 6): 2.62 log PFU/mL | Virus titre in apical wash, geometric mean (RSV A2 [3]; day 7): 1.22 log PFU/mL | inhibition of virus titre in ALI culture (in words) (RSV A2 [3]): completely inhibited virus titre | reduction of virus titre (hRSV/A/Long; intra-nasal dosing at 1 mg/ml): 0.7 log | Virus titre in lung, Geometric Mean (hRSV/A/Long; intranasal, 1.0 mg/mL): 4.5 log, PFU/lung | Virus titre in lung, Median (hRSV/A/Long; intranasal, 1.0 mg/mL): 4.5 log, PFU/lung | IC50 (RSV A2 strain): 0.14 nM | inhibition at 0.01 µg/mL (RSV A2 strain): 84%
